According to paper PMC12123411, “Structural insight into the novel Thermus thermophilus SPOUT methyltransferase RlmR catalysing Um2552 formation in the 23S rRNA A-loop: a case of convergent evolution” (Nucleic Acids Research, 2025):
One block for each compound: values may come before it.

Assays:
[1] = molecular target: T1, RlmR (TTC1712) (Thermus thermophilus, UniProt Q72GY4); experiment: X-ray crystal structure, […] Å; format: binding; settings: ternary complex with U2552 59-mer A-loop RNA; SAH in bent conformation; SAM site at the trefoil knot; pH 4.5
T1 construct: gene TT_C1712; full-length ORF (about 260 residues), N-terminal His-tag, pET28, codon-optimised gene, expressed in E. coli Rosetta; homodimer; HB8 orthologue TTHA0275 differs by three residues
T1 sequence (Q72GY4 1-260): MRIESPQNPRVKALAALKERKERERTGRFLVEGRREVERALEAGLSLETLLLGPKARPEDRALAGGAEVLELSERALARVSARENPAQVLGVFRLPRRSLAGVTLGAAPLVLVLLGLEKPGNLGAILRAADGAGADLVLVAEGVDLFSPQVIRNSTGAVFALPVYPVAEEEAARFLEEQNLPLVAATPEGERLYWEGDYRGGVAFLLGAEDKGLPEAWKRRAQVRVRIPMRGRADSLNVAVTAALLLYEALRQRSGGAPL

[2] = molecular target: T1, RlmR (TTC1712); experiment: X-ray crystal structure (co-crystal with RNA and SAM); also radiolabelled methyl transfer assay; format: binding; settings: co-substrate U2552 59-mer RNA; SAM kept in the dimer site without RNA, turned over to SAH in the RNA-bound site; assay pH 8.0, 5 mM MgCl2, 50 °C, labelled compound
[3] = molecular target: RlmR (TTC1712), 23S rRNA Um2552 SPOUT methyltransferase of Thermus thermophilus HB27 (Thermus thermophilus HB27); experiment: crystal structure; RlmR apoenzyme crystallised under oil at 20°C (100 mM Na citrate pH 4, 20% PEG6000, 1 M LiCl); asymmetric unit of two dimers; the same dimer holds the 59-mer RNA in the complexes with SAH or SAM
[4] = molecular target: RlmR (TTC1712), 23S rRNA Um2552 SPOUT methyltransferase of Thermus thermophilus HB27 (Thermus thermophilus HB27); experiment: SEC; gel filtration chromatography of purified RlmR (Supplementary Fig. S4)

Compound: Nc1ncnc2c1ncn2[C@@H]1O[C@H](CSCC[C@H](N)C(=O)O)[C@@H](O)[C@H]1O [SAH, S-adenosyl-homocysteine]
- X-ray crystal structure, 1.9 Å [1]: crystal structure of RlmR in complex with the 59-mer RNA and SAH to a resolution

Compound: C[S+](CC[C@H](N)C(=O)O)C[C@H]1O[C@@H](n2cnc3c(N)ncnc32)[C@H](O)[C@@H]1O (stereo partly shown) [SAM, S-adenosylmethionine]
- X-ray crystal structure (co-crystal with RNA and SAM); also radiolabelled methyl [2]: in the other catalytic site of the dimer, not hosting the substrate, the co-substrate remains present as SAM

- stoichiometry N [3]: 2
- stoichiometry N [4]: 2
Compound: RlmR (TTC1712), 23S rRNA Um2552 SPOUT methyltransferase of Thermus thermophilus HB27 (enzyme)
